{"source": "patent US20120270864A1", "about": "“2-QUINOLINONE AND 2-QUINOXALINONE-DERIVATIVES AND THEIR USE AS ANTIBACTERIAL AGENTS” (ASTRAZENECA AB, priority 2006, published 2012)", "assay_type_in_all_cases": "cell-based", "key": {"Escherichia coli": {"tested_on": "Escherichia coli", "assay": "Bacterial Susceptibility Testing Methods 1 (MIC in liquid media, 96 well format)", "conditions": "lowest drug concentration able to reduce growth by 80% or more, 37° C., 24 hours, read-out: MIC against Escherichia coli"}, "[1]": {"tested_on": "Staphylococcus aureus (Sau) 516 cells", "assay": "Bacterial Susceptibility Testing Methods 2 (microbroth dilution, growth inhibition)", "conditions": "Tested Concentration 8 μg/mL, Staphylococcus aureus 516 cell growth suppressed compared to untreated sample; for inhibition at 8 µg/mL: Staphylococcus aureus", "description": "Compounds may be tested for antimicrobial activity by susceptibility testing using microbroth dilution methods recommended by CSLI. Compounds may be dissolved in dimethylsulfoxide and tested in 10 doubling dilutions in the susceptibility assays such that the final dimethylsulfoxide concentration in the assay is 2% (v/v). The Staphylococcus aureus (Sau) 516 cells used in the assay may be grown overnight on appropriate agar media and then suspended in the NCCLS-recommended liquid susceptibility-testing media. […] Plates may be incubated under appropriate conditions of atmosphere and temperature and for times according to NCCLS standard methods prior to being read. As used in Table 1 below, the term “inhibition” refers to the percentage of Staphylococcus aureus 516 cell growth that is suppressed (compared to an untreated sample) by the compound of the indicated example number. When tested in the above in-vitro assay, the compounds and salts of the example numbers listed below were tested at the indicated concentrations, providing the indicated inhibitions. In most instances, the highest concentrations at which the compounds were tested was 8 μg/mL. In some instances, however, compounds were tested at concentrations higher than 8 μg/mL, typically when the concentration was first measured in μM and was subsequently converted to μg/mL. In those cases in which compounds were tested at more than one concentration higher than 8 μg/mL, the concentration closest to 8 μg/mL is provided below."}, "Staphylococcus aureus": {"tested_on": "Staphylococcus aureus", "assay": "Bacterial Susceptibility Testing Methods 1 (MIC in liquid media, 96 well format)", "conditions": "lowest drug concentration able to reduce growth by 80% or more, 37° C., 24 hours, read-out: MIC against Staphylococcus aureus", "description": "Compounds may be tested for antimicrobial activity by susceptibility testing in liquid media in a 96 well format. Compounds may be dissolved in dimethylsulfoxide and tested in 10 doubling dilutions in the susceptibility assays. The organisms used in the assay may be grown overnight on suitable agar media and then suspended in a liquid medium appropriate for the growth of the organism. The suspension may be adjusted to be equal to a 0.5 McFarland and a further 1 in 10 dilution may be made into the same liquid medium to prepare the final organism suspension in 100 μL. Plates may be incubated under appropriate conditions at 37° C. for 24 hours prior to reading. The Minimum Inhibitory Concentration (MIC) was determined as the lowest drug concentration able to reduce growth by 80% or more.\nCompounds were evaluated against a panel of Gram-positive species, including Staphylococcus aureus, Streptococcus pneumoniae, Streptococcus pyogenes, and Enterococcus faecium. In addition, compounds were evaluated against a panel of Gram-negative species including Haemophilus influenzae, Escherichia coli and Moraxella catarrhalis."}}, "data": [{"smiles": "N#Cc1ccc2ccc(=O)n(CCN3CC[C@H](NCc4ccc5c(n4)NC(=O)CO5)[C@H](O)C3)c2c1", "note": "[Example 2, 1-[2-((3R,4S)-3-Hydroxy-4-{[(3-oxo-3,4-dihydro-2H-pyrido[3,2-b][1,4]oxazin-6-yl)methyl]amino}piperidin-1-yl)ethyl]-2-oxo-1,2-dihydro quino line-7-carbonitrile]", "values": [{"measurement": "MIC", "setting": "Escherichia coli", "value": 0.5, "unit": "µg/mL"}, {"measurement": "inhibition at 8 µg/mL", "setting": "[1]", "value": 100, "unit": "%"}, {"measurement": "MIC", "setting": "Staphylococcus aureus", "value": 0.25, "unit": "µg/mL"}]}, {"smiles": "N#Cc1ccc2ccc(=O)n(CCN3CC[C@@H](NCc4ccc5c(n4)NC(=O)CO5)[C@@H](O)C3)c2c1", "note": "[Example 5, 1-[2-((3S,4R)-3-Hydroxy-4-{[(3-oxo-3,4-dihydro-2H-pyrido[3,2-b][1,4]oxazin-6-yl)methyl]amino}piperidin-1-yl)ethyl]-2-oxo-1,2-dihydro quino line-7-carbonitrile]", "values": [{"measurement": "inhibition at 8 µg/mL", "setting": "[1]", "value": 100, "unit": "%"}]}, {"smiles": "CO[C@@H]1CN(CCn2c(=O)ccc3ccc(C#N)cc32)CC[C@H]1NCc1ccc2c(n1)NC(=O)CO2", "note": "[Example 42, 1-[2-((3R,4R)-3-methoxy-4-{[(3-oxo-3,4-dihydro-2H-pyrido[3,2-b][1,4]oxazin-6-yl)methyl]amino}piperidin-1-yl)ethyl]-2-oxo-1,2-dihydroquinoline-7-carbonitrile]", "values": [{"measurement": "inhibition at 8 µg/mL", "setting": "[1]", "value": 100, "unit": "%"}]}, {"smiles": "COc1ccc2ncc(=O)n(CCN3CCC(NCc4ccc5c(n4)NC(=O)CO5)C(O)C3)c2c1", "note": "(single isomer, unassigned) [Example 32, 6-[({3-Hydroxy-1-[2-(7-methoxy-2-oxoquinoxalin-1(2H)-yl)ethyl]piperidin-4-yl}amino)methyl]-2H-pyrido[3,2-b][1,4]oxazin-3 (4H)-one]", "values": [{"measurement": "Inhibition (%)", "setting": "[1]", "value": 98, "unit": "%"}]}]}
